Test results published in USRE42890E1, “Furazanobenzimidazoles” (Basilea Pharmaceutica AG, priority 2003, dated 2011).
pIC50: −log10 of the molar value. Like-named read-outs stand apart in the source and are kept apart here.

Key:
[1] = test system: MRC5; experiment: MTS proliferation assay, MRC5; type: cell-based; settings: MRC5, 72 h incubation, read-out: MTS proliferation assay IC 50 MRC5
Procedure, shortened: (§1)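 Read-out: MTS absorbance at 492 nm after 3 h reagent incubation. Before that, cells grew 72 h at 37° C/7.5% CO2 with test compounds at final concentrations of 10 μM, 3 μM, 1 μM and 0.3 μM, added 24 h post-seeding.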

[2] = test system: adherent cells or suspension cells; experiment: Hoechst 33342 nuclear staining (fraction of apoptotic nuclei); type: cell-based; set-up: key: 0 relating to no activity; 1 relating to weak activity comprising less than 70% of the cells; score 2 relating to strong activity comprising more than 70% of the cells
[3] = test system: HeLa; experiment: MTS proliferation assay, HeLa; type: cell-based, human; settings: 72 h incubation, read-out: MTS proliferation assay IC 50 HeLa
Procedure, shortened: (§2)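 Absorbance at 492 nm after 3 h with MTS reagent gave the proliferation read-out. Before that, cells in RPMI-1640 complete medium (5% or 10% FCS) were treated 72 h with compound at four final concentrations, 0.3 to 10 μM.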

[4] = test system: HT1080; experiment: MTS proliferation assay, HT1080; type: cell-based, human; settings: HT1080, 72 h incubation, read-out: MTS proliferation assay IC 50 HT1080
Procedure, shortened: as §2

[5] = test system: Jurkat; experiment: MTS proliferation assay, Jurkat; type: cell-based, human; settings: 72 h incubation, read-out: MTS proliferation assay IC 50 Jurkat
Procedure, shortened: as §2

[6] = test system: Jily; experiment: MTS proliferation assay, Jily; type: cell-based; settings: 72 h incubation, read-out: MTS proliferation assay IC 50 Jily
Procedure, shortened: as §1

| Compound | pIC50 [1] | Hoechst 33342 nuclear staining score ([2]; H460, conc 0.01 μm) | Hoechst 33342 nuclear staining score ([2]; H460, conc 0.1 μm) | Hoechst 33342 nuclear staining score ([2]; H460, conc 1 μm) | Hoechst 33342 nuclear staining score ([2]; HeLa, conc 0.01 μm) | Hoechst 33342 nuclear staining score ([2]; HeLa, conc 0.1 μm) | Hoechst 33342 nuclear staining score ([2]; HeLa, conc 1 μm) | Hoechst 33342 nuclear staining score ([2]; Jily, conc 0.01 μm) | Hoechst 33342 nuclear staining score ([2]; Jily, conc 0.1 μm) | Hoechst 33342 nuclear staining score ([2]; Jily, conc 1 μm) | Hoechst 33342 nuclear staining score ([2]; Jurkat, conc 0.01 μm) | Hoechst 33342 nuclear staining score ([2]; Jurkat, conc 0.1 μm) | Hoechst 33342 nuclear staining score ([2]; Jurkat, conc 1 μm) | Hoechst 33342 nuclear staining score ([2]; MRC5, conc 0.01 μm) | Hoechst 33342 nuclear staining score ([2]; MRC5, conc 0.1 μm) | Hoechst 33342 nuclear staining score ([2]; MRC5, conc 1 μm) | Hoechst 33342 nuclear staining score ([2]; PBLs, conc 0.01 μm) | Hoechst 33342 nuclear staining score ([2]; PBLs, conc 0.1 μm) | Hoechst 33342 nuclear staining score ([2]; PBLs, conc 1 μm) | pIC50 [6] | further results |
| --- | --- | --- | --- | --- | --- | --- | --- | --- | --- | --- | --- | --- | --- | --- | --- | --- | --- | --- | --- | --- | --- |
| COc1ccc(C(=O)Cn2c(-c3nonc3NCCC#N)nc3ccccc32)cc1N [Example 69] | 6.00 to 7.00 | 0 | 0 | 2 (score 2 relating to strong activity comprising more than 70% of the cells) | 0 | 0 | 2 (score 2 relating to strong activity comprising more than 70% of the cells) | 0 | 1 (1 relating to weak activity comprising less than 70% of the cells) | 2 (score 2 relating to strong activity comprising more than 70% of the cells) | 0 | 1 (1 relating to weak activity comprising less than 70% of the cells) | 2 (score 2 relating to strong activity comprising more than 70% of the cells) | 0 | 0 | 1 (1 relating to weak activity comprising less than 70% of the cells) | 0 | 0 | 0 | 6.00 to 7.00 | pIC50 [3]: 6.00 to 7.00; pIC50 [4]: 6.00 to 7.00; pIC50 [5]: 7.00 to 8.00 |
| N#CCCNc1nonc1-c1nc2ccccc2n1CC(=O)c1ccc(N)nc1 [Example 79] | > 8.00 | 2 (score 2 relating to strong activity comprising more than 70% of the cells) | 2 (score 2 relating to strong activity comprising more than 70% of the cells) | 2 (score 2 relating to strong activity comprising more than 70% of the cells) | 2 (score 2 relating to strong activity comprising more than 70% of the cells) | 2 (score 2 relating to strong activity comprising more than 70% of the cells) | 2 (score 2 relating to strong activity comprising more than 70% of the cells) | 2 (score 2 relating to strong activity comprising more than 70% of the cells) | 2 (score 2 relating to strong activity comprising more than 70% of the cells) | 2 (score 2 relating to strong activity comprising more than 70% of the cells) | 2 (score 2 relating to strong activity comprising more than 70% of the cells) | 2 (score 2 relating to strong activity comprising more than 70% of the cells) | 2 (score 2 relating to strong activity comprising more than 70% of the cells) | 1 (1 relating to weak activity comprising less than 70% of the cells) | 2 (score 2 relating to strong activity comprising more than 70% of the cells) | 2 (score 2 relating to strong activity comprising more than 70% of the cells) | 0 | 0 | 0 | > 8.00 | pIC50 [3]: > 8.00; pIC50 [4]: > 8.00; pIC50 [5]: > 8.00 |
| COC(=O)CCNc1nonc1-c1nc2ccccc2n1CC(=O)c1ccc(Cl)cc1 [Example 9, 4-[1-(4-Chlorophenacyl)-1H-benzimidazol-2-yl]-furazan-3-yl-N-(2-methoxycarbonylethyl)-amine] | – | 0 | 0 | 0 | 0 | 0 | 2 (score 2 relating to strong activity comprising more than 70% of the cells) | 0 | 0 | 2 (score 2 relating to strong activity comprising more than 70% of the cells) | 0 | 0 | 2 (score 2 relating to strong activity comprising more than 70% of the cells) | 0 | 0 | 2 (score 2 relating to strong activity comprising more than 70% of the cells) | 0 | 0 | 2 (score 2 relating to strong activity comprising more than 70% of the cells) | 6.00 to 7.00 | pIC50 ([1]; Homo sapiens): 6.00 to 7.00; pIC50 ([3]; Homo sapiens): 6.00 to 7.00; pIC50 ([4]; Homo sapiens, HT-1080): 6.00 to 7.00; pIC50 ([5]; Homo sapiens): 6.00 to 7.00 |
| N#CCCNc1nonc1-c1nc2ccccc2n1CC(=O)c1ccc([N+](=O)[O-])cc1 [Example 57] | 6.00 to 7.00 | 0 | 0 | 0 | 0 | 0 | 2 (score 2 relating to strong activity comprising more than 70% of the cells) | 0 | 0 | 2 (score 2 relating to strong activity comprising more than 70% of the cells) | 0 | 0 | 2 (score 2 relating to strong activity comprising more than 70% of the cells) | 0 | 0 | 2 (score 2 relating to strong activity comprising more than 70% of the cells) | 0 | 0 | 0 | 7.00 to 8.00 | pIC50 [3]: 6.00 to 7.00; pIC50 [4]: 6.00 to 7.00; pIC50 [5]: 7.00 to 8.00 |
| Cc1cc2nc(-c3nonc3N)n(CC(=O)c3ccccc3)c2cc1C [Example 108] | 6.00 to 7.00 | 0 | 0 | 1 (1 relating to weak activity comprising less than 70% of the cells) | 0 | 0 | 0 | 0 | 0 | 2 (score 2 relating to strong activity comprising more than 70% of the cells) | 0 | 0 | 2 (score 2 relating to strong activity comprising more than 70% of the cells) | 0 | 0 | 0 | 0 | 0 | 0 | 6.00 to 7.00 | pIC50 [3]: 6.00 to 7.00; pIC50 [4]: 6.00 to 7.00; pIC50 [5]: 6.00 to 7.00 |
| Nc1nonc1-c1nc2ccccc2n1CC(=O)c1ccc2c(c1)OCO2 [Example 45] | 6.00 to 7.00 | 0 | 2 (score 2 relating to strong activity comprising more than 70% of the cells) | 2 (score 2 relating to strong activity comprising more than 70% of the cells) | 0 | 1 (1 relating to weak activity comprising less than 70% of the cells) | 2 (score 2 relating to strong activity comprising more than 70% of the cells) | 0 | 2 (score 2 relating to strong activity comprising more than 70% of the cells) | 2 (score 2 relating to strong activity comprising more than 70% of the cells) | 0 | 2 (score 2 relating to strong activity comprising more than 70% of the cells) | 2 (score 2 relating to strong activity comprising more than 70% of the cells) | 0 | 0 | 2 (score 2 relating to strong activity comprising more than 70% of the cells) | 0 | 0 | 0 | 7.00 to 8.00 | pIC50 [3]: 7.00 to 8.00; pIC50 [4]: 7.00 to 8.00; pIC50 [5]: 7.00 to 8.00 |
